Literature values as cited in patent US9492489B2, “Uses of hibiscus, in particular pharmaceutical uses” (NATUREX, priority 2007, dated 2016).

Key:
[1] = test system: Escherichia coli
[2] = test system: Staphylococcus aureus
[3] = test system: Bacillus subtilis
[4] = test system: Bacillus pumpilus
[5] = test system: Pseudomonas aeruginosa

Measured: antibacterial properties in vitro

O=c1c(O)c(-c2ccc(O)c(O)c2)oc2c(O)c(O)cc(O)c12 [gossypetin, 3,5,7,8,3′,4′-hexahydroxy-flavone]
antibacterial properties: all assays above
